20 compounds from patent publication US6340687B1, “Substituted tetrahydro-pyrimidine-2(1H)-thione HDL-C elevators useful as antiatherosclerotic agents” (American Home Products Corporation, priority 1997, dated 2002) can be followed below.

One series has as its system HDL cholesterol. Nature of the series: in vivo standard pharmacological test procedure measuring elevation of HDL cholesterol levels in cholesterol/cholic acid-fed rats. Set-up: species or system Male Sprague-Dawley rats. As to conditions: serum, eight days of treatment; for change in vivo at 100 mg/kg / HDL Cholesterol Level Increase (%): dose 100 mg/kg mixed in diet; for change in vivo at 50 mg/kg: dose 50 mg/kg mixed in diet. On the procedure: Representative compounds of this invention were evaluated in an in vivo standard pharmacological test procedure which measured the ability of the compounds of this invention to elevate HDL cholesterol levels. The following briefly describes the procedure used and results obtained. Male Sprague-Dawley rats weighing 200-225 g were housed two per cage and fed Purina Rodent Chow Special Mix 5001-S supplemented with 0.25% cholic acid and 1.0% cholesterol and water ad libitum for 8 days. Each test substance was administered to a group of six rats fed the same diet with the test diet mixed in as 0.005-0.1% of the total diet. Body weight and food consumption were recorded prior to diet administration and at termination. Typical doses of the test substances were 5-100 mg/kg/day.
At termination, blood was collected from anesthetized rats and the serum was separated by centrifugation. Total serum cholesterol was assayed using the Sigma Diagnostics enzymatic kit for the determination of cholesterol, Procedure No. 352, modified for use with ninety-six well microtiter plates. After reconstitutiton with water the reagent contains 300 U/l cholesterol oxidase, 100 U/l cholesterol esterase, 1000 U/l horse radish peroxidase, 0.3 mmol/l 4-aminoantipyrine and 30.0 mmol/l p-hydroxybenzene sulfonate in a pH 6.5 buffer. In the reaction cholesterol was oxidized to produce hydrogen peroxide which was used to form a quinoneimine dye. The concentration of dye formed was measured spectrophotometrically by absorbance at 490 nm after incubation at 25° C. for 30 minutes. The concentration of cholesterol was determined for each serum sample relative to a commercial standard from Sigma.
HDL cholesterol concentrations in serum were determined by separation of lipoprotein classes by fast protein liquid chromatography (FPLC) by a modification of the method of Kieft et al., (J. Lipid Res., 32, 859-866 (1991). Using this methodology, […] of serum was injected onto Superose 12 and Superose 6 (Pharmacia), in series, with a column buffer of 0.05 M Tris (2-amino-2-hydroxymethyl-1,3-propanediol) and 0.15 M sodium chloride at a flow rate of 0.5 mL/min. The eluted sample was mixed on line with Boehringer-Mannheim cholesterol reagent pumped at 0.2 mL/min. The combined eluents were mixed and incubated on line through a knitted coil (Applied Biosciences) maintained at a temperature of 45° C. The eluent was monitored by measuring absorbance at 490 nm and gives a continuous absorbance signal proportional to the cholesterol concentration. The relative concentration for each lipoprotein class was calculated as the percent of total absorbance. HDL cholesterol concentration in serum was calculated as the percent of total cholesterol as determined by FPLC multiplied by the total serum cholesterol concentration.
In Examples 5-7, 9, 10 and 12-20 the test compounds were administered at a dose of 100 mg/kg. In Examples 1, 2, 3 and 11, the test compounds were administered at a dose of 50 mg/kg. In Example 4, the test compound was administered at a dose of 46 mg/kg and in Example 8 at a dose of 90 mg/kg. The duration of treatment for all examples was eight days.

[1] abbreviates: Rattus norvegicus, feed or water, 192 h, read-out: HDL Cholesterol Level Increase (%).

What is called melting point is the temperature of the solid-liquid transition.

`Cc1cc(Cl)ccc1N1CCCN(CC(C)C)C1=S` [Example 17, 1-(4-Chloro-2-methyl-phenyl)-3-isobutyl-3,4,5,6-tetrahydro-pyrimidine-2(1H)-thione] returned a melting point of 88 to 90 °C. Besides, the change in vivo at 100 mg/kg in the series on HDL cholesterol (setting [1]) turned out to be 12%.

`Cc1cccc(Cl)c1N1CCCN(C(C)C)C1=S` [Example 15, 1-(6-Chloro-2-methyl-phenyl)-3-isopropyl-3,4,5,6-tetrahydro-pyrimidine-2(1H)-thione] gave a melting point of 135 to 136 °C. In addition, the change in vivo at 100 mg/kg in the series on HDL cholesterol (setting [1]) is 86%.

Compound `C=CCN1CCCN(c2cc(Cl)ccc2C)C1=S` [Example 8, 3-Allyl-1-(5-chloro-2-methyl-phenyl)-3,4,5,6-tetrahydro-pyrimidine-2(1H)-thione] displayed a melting point of 71 to 72 °C. For the same compound, in the series with HDL cholesterol (Rattus norvegicus, feed or water, 192 h, dose 90 mg/kg mixed in diet, read-out: HDL Cholesterol Level Increase (%)), the change in vivo at 90 mg/kg was found to be 21%.

Regarding `Cc1cccc(C)c1N1CCCNC1=S` [Example 4, 1-(2,6-Dimethyl-phenyl)-3,4,5,6-tetrahydro-pyrimidine-2(1H)-thione], the melting point is 249 to 251 °C. Besides, the change in vivo at 46 mg/kg with HDL cholesterol (Rattus norvegicus, feed or water, 192 h, dose 46 mg/kg mixed in diet, read-out: HDL Cholesterol Level Increase (%)) was determined as 34%.

The compound `Cc1cccc(Cl)c1N1CCCN(C)C1=S` [Example 13, 1-(6-Chloro-2-methyl-phenyl)-3-methyl-3,4,5,6-tetrahydro-pyrimidine-2(1H)-thione] showed a melting point of 164 to 165 °C. Further, the change in vivo at 100 mg/kg in the series with HDL cholesterol (setting [1]) came to 81%.

In the case of `Cc1cccc(Cl)c1N1CCCN(C2CCC2)C1=S` [Example 18, 1-(6-Chloro-2-methyl-phenyl)-3-cyclobutyl-3,4,5,6-tetrahydro-pyrimidine-2(1H)-thione], the melting point was 89 to 91 °C. In addition, in the series with HDL cholesterol (setting [1]), the change in vivo at 100 mg/kg amounted to 42%.

`C=CCN1CCCN(c2c(C)cccc2Cl)C1=S` [Example 12, 3-Allyl-1-(6-chloro-2-methyl-phenyl)-3,4,5,6-tetrahydro-pyrimidine-2(1H)-thione] showed a melting point of 82 to 84 °C. Further, the change in vivo at 100 mg/kg in the series on HDL cholesterol (setting [1]) is 19%.

In turn, `Cc1cccc(Cl)c1N1CCCN(CC(C)C)C1=S` [Example 20, 1-(6-Chloro-2-methyl-phenyl)-3-isobutyl-3,4,5,6-tetrahydro-pyrimidine-2(1H)-thione] came in with a melting point of 119 to 121 °C. Besides, the change in vivo at 100 mg/kg with HDL cholesterol (setting [1]) is 24%.

In turn, `Cc1ccc(Cl)cc1N1CCCN(C(C)C)C1=S` [Example 6, 1-(5-Chloro-2-methyl-phenyl)-3-isopropyl-3,4,5,6-tetrahydro-pyrimidine-2(1H)-thione] displayed a melting point of 176 to 178 °C. Also, in the series with HDL cholesterol (setting [1]), the change in vivo at 100 mg/kg stood at 137%.

Consider `Cc1cc(Cl)ccc1N1CCCNC1=S` [Example 1, 1-(4-Chloro-2-methyl-phenyl)-3,4,5,6-tetrahydro-pyrimidine-2(1H)-thione], for which the melting point lay in the range of 266 to 268 °C. In the series on HDL cholesterol (setting [1]), the change in vivo at 50 mg/kg came out at 86%.

Turning to `Cc1ccc(Cl)cc1N1CCCN(C2CCC2)C1=S` [Example 19, 1-(5-Chloro-2-methyl-phenyl)-3-cyclobutyl-3,4,5,6-tetrahydro-pyrimidine-2(1H)-thione], the melting point was 152 to 154 °C. For the same compound, the change in vivo at 100 mg/kg in the series with HDL cholesterol (setting [1]) was 37%.

The compound `CCN1CCCN(c2cc(Cl)ccc2C)C1=S` [Example 5, 1-(5-Chloro-2-methyl-phenyl)-3-ethyl-3,4,5,6-tetrahydro-pyrimidine-2(1H)-thione] returned a melting point of 111 to 112 °C. In addition, the change in vivo at 100 mg/kg in the series on HDL cholesterol (setting [1]) is 183%.

For the compound `CCN1CCCN(c2ccc(Cl)cc2C)C1=S` [Example 3, 1-(4-Chloro-2-methyl-phenyl)-3-ethyl-3,4,5,6-tetrahydro-pyrimidine-2(1H)-thione], the melting point fell in the range of 116 to 118 °C. The change in vivo at 50 mg/kg in the series on HDL cholesterol (setting [1]) turned out to be 152%.

For the compound `Cc1ccc(Cl)cc1N1CCCN(CC(C)C)C1=S` [Example 14, 1-(5-Chloro-2-methyl-phenyl)-3-isobutyl-3,4,5,6-tetrahydro-pyrimidine-2-(1H)-thione], the “HDL Cholesterol Level Increase (%)” value in the series with HDL cholesterol was determined as 66%.

Consider `C=CCN1CCCN(c2ccc(Cl)cc2C)C1=S` [Example 10, 3-Allyl-1-(4-chloro-2-methyl-phenly)-3,4,5,6-tetrahydro-pyrimidine-2(1H)-thione], for which the “HDL Cholesterol Level Increase (%)” value in the series on HDL cholesterol was 57%.

`Cc1cc(Cl)ccc1N1CCCN(C)C1=S` [Example 11, 1-(4-Chloro-2-methyl-phenyl)-3-methyl-3,4,5,6-tetrahydro-pyrimidine-2(1H)thione] came in with a melting point of 143 to 145 °C. The change in vivo at 50 mg/kg with HDL cholesterol (setting [1]) came to 86%.

As to `CCN1CCCN(c2c(C)cccc2Cl)C1=S` [Example 16, 1-(6-Chloro-2-methyl-phenyl)-3-ethyl-3,4,5,6-tetrahydro-pyrimidine-2(1H)-thione], the melting point is 88 to 90 °C. Moreover, in the series on HDL cholesterol (setting [1]), the change in vivo at 100 mg/kg came out at 85%.

For `S=C1NCCCN1c1ccccc1` [Example 2, 1-Phenyl-3,4,5,6-tetrahydro-pyrimidine-2(1H)-thione], the melting point was in the range of 211 to 212 °C. In the series with HDL cholesterol (setting [1]), the change in vivo at 50 mg/kg turned out to be 20%.

Compound `Cc1cc(Cl)ccc1N1CCCN(C(C)C)C1=S` [Example 7, 1-(4-Chloro-2-methyl-phenyl)-3-isopropyl-3,4,5,6-tetrahydro-pyrimidine-2(1H)-thione] gave a melting point of 147 to 149 °C. Besides, the change in vivo at 100 mg/kg in the series with HDL cholesterol (setting [1]) is 92%.

The compound `Cc1ccc(Cl)cc1N1CCCN(C)C1=S` [Example 9, 1-(5-Chloro-2-methyl-phenyl)-3-methyl-3,4,5,6-tetrahydro-pyrimidine-2(1H)-thione] registered a melting point of 143 to 145 °C. Also, the change in vivo at 100 mg/kg in the series with HDL cholesterol (setting [1]) was 143%.
